Test results taken from US8735414B2 (priority 2009, dated 2014).

How the values were obtained:
[1] = test system: bicistronic HCV replicon (replicon RNA, GenBank Accession No. AJ242654); test: HCV Replicon Assay; assay type: cell-based; details: Hepatitis C virus, 72 h, read-out: Replicon IC50

C[C@@H](NS(=O)(=O)c1ccc(-c2c(C#N)c3ccc(OC(F)(F)F)cc3n2C2CCCCC2)nc1)C(F)(F)F [compound 304, 6-[3-cyano-1-cyclohexyl-6-(trifluoromethoxy)-1H-indol-2-yl]-N-[(2R)-1,1,1-trifluoropropan-2-yl]pyridine-3-sulfonamide]
IC50 [1]: < 500 nM | melting point: 181 to 183 °C

C[C@H](NS(=O)(=O)c1ccc(-c2c(C#N)c3ccc(OC(F)(F)F)cc3n2C2CCCCC2)nc1)C1CC1 [compound 305, 6-[3-cyano-1-cyclohexyl-6-(trifluoromethoxy)-1H-indol-2-yl]-N-[(1S)-1-cyclopropylethyl]pyridine-3-sulfonamide]
IC50 [1]: < 500 nM | melting point: 195 to 197 °C

N#Cc1c(-c2ncc(S(=O)(=O)NC(CF)CF)cn2)n(C2CCCCC2)c2cc(OC(F)(F)F)ccc12 [compound 306, 2-[3-cyano-1-cyclohexyl-6-(trifluoromethoxy)-1H-indol-2-yl]-N-(1,3-difluoropropan-2-yl)pyrimidine-5-sulfonamide]
IC50 [1]: 500 to 2000 nM | melting point: 168 to 170 °C

N#Cc1c(-c2ccc(S(=O)(=O)NC(CF)CF)cn2)n(C2CCCC2)c2cc(F)ccc12 [compound 307, 6-(3-cyano-1-cyclopentyl-6-fluoro-1H-indol-2-yl)-N-(1,3-difluoropropan-2-yl)pyridine-3-sulfonamide]
IC50 [1]: < 500 nM | melting point: 166 to 168 °C

CC(C)n1c(-c2ccc(S(=O)(=O)N[C@@H](C)C3CC3)cn2)c(C#N)c2ccc(OC(F)(F)F)cc21 [compound 308, 6-[3-cyano-1-(propan-2-yl)-6-(trifluoromethoxy)-1H-indol-2-yl]-N-[(1S)-1-cyclopropylethyl]pyridine-3-sulfonamide]
IC50 [1]: 500 to 2000 nM | melting point: 144 to 145 °C

C[C@H](NS(=O)(=O)c1ccc(-c2c(C#N)c3ccc(OC(F)(F)F)cc3n2CC2CC2)nc1)C1CC1 [compound 309, 6-[3-cyano-1-(cyclopropylmethyl)-6-(trifluoromethoxy)-1H-indol-2-yl]-N-[(1S)-1-cyclopropylethyl]pyridine-3-sulfonamide]
IC50 [1]: < 500 nM | melting point: 115 to 117 °C

CCc1ccc2c(C#N)c(-c3ccc(S(=O)(=O)NC(CF)CF)cn3)n(C3CCCC3)c2c1 [compound 310, 6-(3-cyano-1-cyclopentyl-6-ethyl-1H-indol-2-yl)-N-(1,3-difluoropropan-2-yl)pyridine-3-sulfonamide]
IC50 [1]: < 500 nM | melting point: 204.5 to 205 °C

CCc1ccc2c(C#N)c(-c3ccc(S(=O)(=O)N[C@H](C)C(F)(F)F)cn3)n(C3CCCC3)c2c1 [compound 311, 6-(3-cyano-1-cyclopentyl-6-ethyl-1H-indol-2-yl)-N-[(2R)-1,1,1-trifluoropropan-2-yl]pyridine-3-sulfonamide]
IC50 [1]: < 500 nM | melting point: 185 to 186 °C

CCc1ccc2c(C#N)c(-c3ccc(S(=O)(=O)N[C@@H](C)C4CC4)cn3)n(C3CCCC3)c2c1 [compound 312, 6-(3-cyano-1-cyclopentyl-6-ethyl-1H-indol-2-yl)-N-[(1S)-1-cyclopropylethyl]pyridine-3-sulfonamide]
IC50 [1]: 500 to 2000 nM | melting point: 147.5 to 148.5 °C

Cc1ccc2c(c1)c(C#N)c(-c1ccc(S(=O)(=O)NC3(C(F)(F)F)CC3)cn1)n2C1CCCC1 [compound 313, 6-(3-cyano-1-cyclopentyl-5-methyl-1H-indol-2-yl)-N-[1-(trifluoromethyl)cyclopropyl]pyridine-3-sulfonamide]
IC50 [1]: < 500 nM | melting point: 209 to 214 °C

CC(C)NS(=O)(=O)c1cnc(-c2c(C#N)c3cc(Cl)ccc3n2C2CCCC2)nc1 [compound 314, 2-(5-chloro-3-cyano-1-cyclopentyl-1H-indol-2-yl)-N-(propan-2-yl)pyrimidine-5-sulfonamide]
IC50 [1]: < 500 nM | melting point: 239 to 245 °C

C[C@@H](NS(=O)(=O)c1ccc(-c2c(C#N)c3ccc(CF)cc3n2C2CCC2)nc1)C(F)(F)F [compound 319, 6-[3-cyano-1-cyclobutyl-6-(fluoromethyl)-1H-indol-2-yl]-N-[(2R)-1,1,1-trifluoropropan-2-yl]pyridine-3-sulfonamide]
IC50 [1]: 500 to 2000 nM | melting point: 200 to 213 °C

C[C@H](NS(=O)(=O)c1ccc(-c2c(C#N)c3ccc(OC(F)(F)F)cc3n2C2CCCC2)nc1)C1CC1 [compound 320, 6-[3-cyano-1-cyclopentyl-6-(trifluoromethoxy)-1H-indol-2-yl]-N-[(1S)-1-cyclopropylethyl]pyridine-3-sulfonamide]
IC50 [1]: 500 to 2000 nM | melting point: 133 to 134 °C

N#Cc1c(-c2ncc(S(=O)(=O)NC(CF)CF)cn2)n(C2CCC2)c2cc(N3CCOCC3)ccc12 [compound 321, 2-[3-cyano-1-cyclobutyl-6-(morpholin-4-yl)-1H-indol-2-yl]-N-(1,3-difluoropropan-2-yl)pyrimidine-5-sulfonamide]
IC50 [1]: 500 to 2000 nM | melting point: 223 to 225 °C

N#Cc1c(-c2ccc(S(=O)(=O)NC(CF)CF)cn2)n(C2CCC2)c2cc(N3CCOCC3)ccc12 [compound 322, 6-[3-cyano-1-cyclobutyl-6-(morpholin-4-yl)-1H-indol-2-yl]-N-(1,3-difluoropropan-2-yl)pyridine-3-sulfonamide]
IC50 [1]: 2000 to 5000 nM | melting point: 241 to 242 °C

C[C@H](NS(=O)(=O)c1cnc(-c2c(C#N)c3ccc(OC(F)F)cc3n2C2CCC2)nc1)C(F)(F)F [compound 323, 2-[3-cyano-1-cyclobutyl-6-(difluoromethoxy)-1H-indol-2-yl]-N-[(2S)-1,1,1-trifluoropropan-2-yl]pyrimidine-5-sulfonamide]
IC50 [1]: < 500 nM | melting point: 221 to 223 °C

C[C@H](NS(=O)(=O)c1cnc(-c2c(C#N)c3ccc(C4CC4)cc3n2C2CCC2)nc1)C(F)(F)F [compound 324, 2-(3-cyano-1-cyclobutyl-6-cyclopropyl-1H-indol-2-yl)-N-[(2S)-1,1,1-trifluoropropan-2-yl]pyrimidine-5-sulfonamide]
IC50 [1]: < 500 nM | melting point: 214 to 215 °C

Cc1ccc2c(C#N)c(-c3ncc(S(=O)(=O)N[C@@H](C)C(F)(F)F)cn3)n(C3CCC3)c2c1 [compound 325, 2-(3-cyano-1-cyclobutyl-6-methyl-1H-indol-2-yl)-N-[(2S)-1,1,1-trifluoropropan-2-yl]pyrimidine-5-sulfonamide]
IC50 [1]: < 500 nM | melting point: 242 to 243 °C

C[C@H](NS(=O)(=O)c1cnc(-c2c(C#N)c3ccc(OC(F)F)cc3n2C2CCCC2)nc1)C(F)(F)F [compound 326, 2-[3-cyano-1-cyclopentyl-6-(difluoromethoxy)-1H-indol-2-yl]-N-[(2S)-1,1,1-trifluoropropan-2-yl]pyrimidine-5-sulfonamide]
IC50 [1]: < 500 nM | melting point: 231 to 232 °C

N#Cc1c(-c2ccc(S(=O)(=O)NC3(C(F)(F)F)CC3)cn2)n(C2CCCC2)c2ccc(F)cc12 [compound 327, 6-(3-cyano-1-cyclopentyl-5-fluoro-1H-indol-2-yl)-N-[1-(trifluoromethyl)cyclopropyl]pyridine-3-sulfonamide]
IC50 [1]: < 500 nM | melting point: 202 to 206 °C

Cc1ccc2c(c1)c(C#N)c(-c1ccc(S(=O)(=O)NC3(C(F)(F)F)CC3)cn1)n2C1CCC1 [compound 328, 6-(3-cyano-1-cyclobutyl-5-methyl-1H-indol-2-yl)-N-[1-(trifluoromethyl)cyclopropyl]pyridine-3-sulfonamide]
IC50 [1]: < 500 nM | melting point: 193 to 199 °C

N#Cc1c(-c2ccc(S(=O)(=O)NC3(C(F)(F)F)CC3)cn2)n(C2CCC2)c2ccc(F)cc12 [compound 329, 6-(3-cyano-1-cyclobutyl-5-fluoro-1H-indol-2-yl)-N-[1-(trifluoromethyl)cyclopropyl]pyridine-3-sulfonamide]
IC50 [1]: < 500 nM | melting point: 176 to 183 °C

N#Cc1c(-c2ccc(S(=O)(=O)NC(CF)CF)cn2)n(C2CCC2)c2cc(C(F)F)ccc12 [compound 331, 6-[3-cyano-1-cyclobutyl-6-(difluoromethyl)-1H-indol-2-yl]-N-(1,3-difluoropropan-2-yl)pyridine-3-sulfonamide]
IC50 [1]: < 500 nM | melting point: 217 to 222 °C

CC(C)NS(=O)(=O)c1cnc(-c2c(C#N)c3ccc(C(F)F)cc3n2C2CCC2)nc1 [compound 332, 2-[3-cyano-1-cyclobutyl-6-(difluoromethyl)-1H-indol-2-yl]-N-(propan-2-yl)pyrimidine-5-sulfonamide]
IC50 [1]: < 500 nM | melting point: 221 to 227 °C

C[C@@H](NS(=O)(=O)c1ccc(-c2c(C#N)c3ccc(C(F)F)cc3n2C2CCC2)nc1)C(F)(F)F [compound 334, 6-[3-cyano-1-cyclobutyl-6-(difluoromethyl)-1H-indol-2-yl]-N-[(2R)-1,1,1-trifluoropropan-2-yl]pyridine-3-sulfonamide]
IC50 [1]: < 500 nM | melting point: 200 to 206 °C

C[C@H](NS(=O)(=O)c1ccc(-c2c(C#N)c3ccc(C(F)F)cc3n2C2CCC2)nc1)C1CC1 [compound 335, 6-[3-cyano-1-cyclobutyl-6-(difluoromethyl)-1H-indol-2-yl]-N-[(1S)-1-cyclopropylethyl]pyridine-3-sulfonamide]
IC50 [1]: < 500 nM | melting point: 182 to 189 °C

COc1ccc(-n2c(-c3ccc(S(=O)(=O)NC(CF)CF)cn3)c(C#N)c3cc(F)ccc32)cc1 [compound 336, 6-[3-cyano-5-fluoro-1-(4-methoxyphenyl)-1H-indol-2-yl]-N-(1,3-difluoropropan-2-yl)pyridine-3-sulfonamide]
IC50 [1]: < 500 nM | melting point: 198 to 200 °C

COc1ccc(-n2c(-c3ncc(S(=O)(=O)NC(CF)CF)cn3)c(C#N)c3cc(F)ccc32)cc1 [compound 337, 2-[3-cyano-5-fluoro-1-(4-methoxyphenyl)-1H-indol-2-yl]-N-(1,3-difluoropropan-2-yl)pyrimidine-5-sulfonamide]
IC50 [1]: 500 to 2000 nM | melting point: 209 to 211 °C

CCc1ccc2c(C#N)c(-c3ccc(S(=O)(=O)N[C@@H](C)C(F)(F)F)cn3)n(C3CCC3)c2c1 [compound 338, 6-(3-cyano-1-cyclobutyl-6-ethyl-1H-indol-2-yl)-N-[(2S)-1,1,1-trifluoropropan-2-yl]pyridine-3-sulfonamide]
IC50 [1]: < 500 nM | melting point: 198 to 199 °C
